Assay results reported in PubChem BioAssay AID328 (DTP/NCI, 2004).
Values joined by “and” are separate entries in the source; they are usually repeats but may differ in a detail not shown here. Identical values can stand only once. Inconclusive results and toxic doses are left out. Starred links: 1 amine or outer side, 2 acyl side, 3 side chain; linkers in the order of their positions; H or OH if unused. Positions of bridges follow the written chain, without caps; N, C: chain ends. Non-standard residues stand in square brackets, D forms with d. Residues, ends and D or L forms follow the SMILES beside them. Chains are numbered I, II in the order given. ξ: configuration not given here. *: point of attachment. Actinocin(9to1) = Cc1c2oc3c(C)ccc(C(=O)[*:1])c3nc-2c(C(=O)[*:2])c(N)c1=O; ξPro(4ξ-Me) = CC1CNC(C(=O)O)C1; NMeV = CN[CH](C(=O)O)C(C)C; Boc = CC(C)(C)OC(=O)*; ξP = O=C(O)C1CCCN1; Sar = CNCC(=O)O

System: BDF1 mice, P388 leukemia ip, median survival T/C
Assay: NCI In Vivo Anticancer Drug Screen. Data for tumor model P388 Leukemia (intraperitoneal) in B6D2F1 (BDF1) mice
Settings: endpoint: median survival time, higher = longer survival
Experimental: The antitumor activity of compounds was measured in mice bearing transplantable tumors. Survival or tumor size were measured and the results are expressed as the measurement made in the treated group (T) divided by the measurement made in the vehicle treated control group (C). The tumor model used in this assay is P388 Leukemia (intraperitoneal) in B6D2F1 (BDF1) mice

[1] = dose: 50.0 mg/kg/injection, schedule: Q01DX009 (ip), vehicle: saline with Tween-80
[2] = dose: 100.0 mg/kg/injection, schedule: Q01DX009 (ip), vehicle: saline with Tween-80
[3] = dose: 200.0 mg/kg/injection, schedule: Q01DX009 (ip), vehicle: saline with Tween-80
[4] = dose: 100.0 mg/kg/injection, schedule: Q04DX003 (ip), vehicle: saline
[5] = dose: 200.0 mg/kg/injection, schedule: Q04DX003 (ip), vehicle: saline
[6] = dose: 400.0 mg/kg/injection, schedule: Q04DX003 (ip), vehicle: saline
[7] = dose: 100.0 mg/kg/injection, schedule: Q04DX003 (ip), vehicle: Klucel (hydroxypropylcellulose) (HPC)
[8] = dose: 200.0 mg/kg/injection, schedule: Q04DX003 (ip), vehicle: Klucel (hydroxypropylcellulose) (HPC)
[9] = dose: 400.0 mg/kg/injection, schedule: Q04DX003 (ip), vehicle: Klucel (hydroxypropylcellulose) (HPC)

Cc1c2oc3c(C)ccc(C(=O)NC4C(=O)NC(C(C)C)C(=O)N5CC(C)CC5C(=O)N(C)CC(=O)N(C)C(C(C)C)C(=O)OC4C)c3nc-2c(C(=O)NC2C(=O)NC(C(C)C)C(=O)N3CC(C)CC3C(=O)N(C)CC(=O)N(C)C(C(C)C)C(=O)OC2C)c(N)c1=O (stereo not drawn) (I: TV[ξPro(4ξ-Me)][Sar][NMeV] / II: TV[ξPro(4ξ-Me)][Sar][NMeV]; ester I:1-I:C, II:1-II:C; linker I:N-II:N via Actinocin(9to1); configuration not given here)
T/C (dose: 1.3 mg/kg/injection, schedule: Q01DX009 (ip), vehicle: saline + alcohol): 204 % of control
T/C (dose: 2.16 mg/kg/injection, schedule: Q01DX009 (ip), vehicle: saline + alcohol): 228 % of control
T/C (dose: 3.24 mg/kg/injection, schedule: Q04DX003 (ip), vehicle: saline + alcohol): 190 % of control and 161 % of control and 193 % of control
T/C (dose: 3.6 mg/kg/injection, schedule: Q01DX009 (ip), vehicle: saline + alcohol): 314 % of control
T/C (dose: 5.4 mg/kg/injection, schedule: Q04DX003 (ip), vehicle: saline + alcohol): 160 % of control and 219 % of control
T/C (dose: 9.0 mg/kg/injection, schedule: Q04DX003 (ip), vehicle: saline + alcohol): 160 % of control and 209 % of control and 99 % of control
T/C (dose: 15.0 mg/kg/injection, schedule: Q04DX003 (ip), vehicle: saline + alcohol): 104 % of control and 207 % of control
T/C (dose: 288.0 micrograms/kg/injection, schedule: Q01DX009 (ip), vehicle: saline + alcohol): 169 % of control
T/C (dose: 480.0 micrograms/kg/injection, schedule: Q01DX009 (ip), vehicle: saline + alcohol): 176 % of control
T/C (dose: 800.0 micrograms/kg/injection, schedule: Q01DX009 (ip), vehicle: saline + alcohol): 194 % of control
T/C (dose: 864.0 micrograms/kg/injection, schedule: Q04DX003 (ip), vehicle: saline + alcohol): 101 % of control
T/C (dose: 2400.0 micrograms/kg/injection, schedule: Q04DX003 (ip), vehicle: saline + alcohol): 167 % of control
T/C (dose: 4000.0 micrograms/kg/injection, schedule: Q04DX003 (ip), vehicle: saline + alcohol): 151 % of control and 194 % of control

Cc1ccc2c(c1)Oc1ccccc1N=C2
T/C [1]: 97 % of control
T/C [2]: 103 % of control
T/C [3]: 97 % of control

COC(=O)c1cc(=O)nc(N/N=C/c2ccc(C)cc2)s1
T/C (dose: 50.0 mg/kg/injection, schedule: Q01DX005 (ip), vehicle: saline with Tween-80): 94 % of control
T/C (dose: 100.0 mg/kg/injection, schedule: Q01DX005 (ip), vehicle: saline with Tween-80): 89 % of control
T/C (dose: 200.0 mg/kg/injection, schedule: Q01DX005 (ip), vehicle: saline with Tween-80): 99 % of control

COc1cc([C@@H]2c3cc4c(cc3[C@@H](OC3OC5CO[C@@H](c6cccs6)OC5C(O)C3O)[C@H]3COC(=O)[C@H]23)OCO4)cc(OC)c1O (stereo partly drawn)
T/C (dose: 0.25 mg/kg/injection, schedule: Q01DX010 (ip), vehicle: saline): 166 % of control and 175 % of control
T/C (dose: 0.5 mg/kg/injection, schedule: Q01DX010 (ip), vehicle: saline): 179 % of control and 183 % of control
T/C (dose: 1.0 mg/kg/injection, schedule: Q01DX010 (ip), vehicle: saline): 166 % of control and 216 % of control
T/C (dose: 2.0 mg/kg/injection, schedule: Q01DX010 (ip), vehicle: saline): 233 % of control and 250 % of control
T/C (dose: 2.88 mg/kg/injection, schedule: Q04DX003 (ip), vehicle: saline): 300 % of control
T/C (dose: 3.24 mg/kg/injection, schedule: Q04DX003 (ip), vehicle: clinical formulation): 327 % of control
T/C (dose: 4.0 mg/kg/injection, schedule: Q01DX010 (ip), vehicle: saline): 100 % of control
T/C (dose: 4.8 mg/kg/injection, schedule: Q04DX003 (ip), vehicle: saline): 596 % of control
T/C (dose: 5.4 mg/kg/injection, schedule: Q04DX003 (ip), vehicle: clinical formulation): 557 % of control
T/C (dose: 8.0 mg/kg/injection, schedule: Q04DX003 (ip), vehicle: saline): 378 % of control
T/C (dose: 9.0 mg/kg/injection, schedule: Q04DX003 (ip), vehicle: clinical formulation): 557 % of control
T/C (dose: 13.33 mg/kg/injection, schedule: Q04DX003 (ip), vehicle: saline): 240 % of control
T/C (dose: 15.0 mg/kg/injection, schedule: Q04DX003 (ip), vehicle: clinical formulation): 558 % of control

COC(=O)CNC(=O)C1CCCN1C(=O)OC(C)(C)C (stereo not drawn) (Boc-[ξP]-Gly-OMe)
T/C [4]: 100 % of control
T/C [5]: 105 % of control
T/C [6]: 95 % of control

COc1ccc(NC(=O)Oc2ccc(-c3ccccc3)cc2Br)cc1
T/C [7]: 91 % of control
T/C [8]: 95 % of control
T/C [9]: 91 % of control

COc1ccc(C2c3cc4c(c(OC)c3CC3OCC(=O)C32)OCO4)cc1OC (stereo not drawn)
T/C (dose: 44.8 mg/kg/injection, schedule: Q01DX010 (ip), vehicle: saline): 163 % of control
T/C (dose: 50.0 mg/kg/injection, schedule: Q01DX001 (ip), vehicle: saline): 100 % of control
T/C (dose: 89.5 mg/kg/injection, schedule: Q01DX010 (ip), vehicle: saline): 172 % of control
T/C (dose: 100.0 mg/kg/injection, schedule: Q01DX001 (ip), vehicle: saline): 109 % of control
T/C (dose: 100.0 mg/kg/injection, schedule: Q01DX010 (ip), vehicle: other): 172 % of control
T/C (dose: 179.0 mg/kg/injection, schedule: Q01DX010 (ip), vehicle: saline): 100 % of control
T/C (dose: 200.0 mg/kg/injection, schedule: Q01DX001 (ip), vehicle: other): 157 % of control
T/C (dose: 200.0 mg/kg/injection, schedule: Q01DX001 (ip), vehicle: saline): 104 % of control
T/C (dose: 400.0 mg/kg/injection, schedule: Q01DX001 (ip), vehicle: other): 189 % of control
T/C (dose: 400.0 mg/kg/injection, schedule: Q01DX001 (ip), vehicle: saline): 122 % of control

Clc1nc2nc(C3CC3)[nH]c2nc1Cl
T/C [2]: 104 % of control
T/C [3]: 100 % of control
T/C (dose: 400.0 mg/kg/injection, schedule: Q01DX009 (ip), vehicle: saline with Tween-80): 104 % of control

COc1ccc2c(c1)CCC1=C2C=C[P+]1(C)C
T/C (dose: 12.5 mg/kg/injection, schedule: Q01DX009 (ip), vehicle: saline with Tween-80): 92 % of control
T/C (dose: 25.0 mg/kg/injection, schedule: Q01DX009 (ip), vehicle: saline with Tween-80): 111 % of control

CCC(=O)OC1CC2C3CCC4=CC(=O)CCC4(C)C3CCC2(C)C1OC(=O)CC (stereo not drawn)
T/C [7]: 100 % of control
T/C (dose: 200.0 mg/kg/injection, schedule: Q01DX009 (ip), vehicle: Klucel (hydroxypropylcellulose) (HPC)): 109 % of control
T/C [8]: 104 % of control
T/C (dose: 400.0 mg/kg/injection, schedule: Q01DX009 (ip), vehicle: Klucel (hydroxypropylcellulose) (HPC)): 91 % of control and 122 % of control
T/C [9]: 104 % of control

CC1(C)N=C(N)N=C(N)N1c1cccc(CNC(=O)Nc2cccc(S(=O)(=O)F)c2)c1
T/C [1]: 154 % of control
T/C (dose: 50.0 mg/kg/injection, schedule: Q04DX003 (ip), vehicle: saline with Tween-80): 100 % of control
T/C [2]: 168 % of control
T/C (dose: 100.0 mg/kg/injection, schedule: Q04DX003 (ip), vehicle: saline with Tween-80): 100 % of control

COc1ccc(/C=C/C(=N\O)c2ccc(OC)c(OC)c2)cc1OC
T/C (dose: 25.0 mg/kg/injection, schedule: Q01DX009 (ip), vehicle: saline): 118 % of control
T/C (dose: 25.0 mg/kg/injection, schedule: Q04DX003 (ip), vehicle: saline): 105 % of control
T/C (dose: 50.0 mg/kg/injection, schedule: Q01DX009 (ip), vehicle: saline): 97 % of control
T/C (dose: 50.0 mg/kg/injection, schedule: Q04DX003 (ip), vehicle: saline): 96 % of control
T/C (dose: 100.0 mg/kg/injection, schedule: Q01DX009 (ip), vehicle: saline): 120 % of control
T/C [4]: 105 % of control
T/C [5]: 114 % of control
T/C (dose: 400.0 mg/kg/injection, schedule: Q01DX009 (ip), vehicle: saline): 103 % of control
T/C [6]: 105 % of control

CN=C(N)Nc1ccc(C(=O)Oc2ccc([N+](=O)[O-])cc2)cc1
T/C (dose: 12.5 mg/kg/injection, schedule: Q01DX009 (ip), vehicle: water): 89 % of control
T/C (dose: 25.0 mg/kg/injection, schedule: Q01DX009 (ip), vehicle: water): 95 % of control
T/C (dose: 50.0 mg/kg/injection, schedule: Q01DX009 (ip), vehicle: water): 87 % of control
T/C (dose: 50.0 mg/kg/injection, schedule: Q04DX003 (ip), vehicle: water): 122 % of control
T/C (dose: 100.0 mg/kg/injection, schedule: Q04DX003 (ip), vehicle: water): 110 % of control
T/C (dose: 200.0 mg/kg/injection, schedule: Q01DX009 (ip), vehicle: water): 105 % of control
T/C (dose: 200.0 mg/kg/injection, schedule: Q04DX003 (ip), vehicle: water): 113 % of control
